Entries after “also recorded” stand apart in the source; their conditions may differ. Where two headings read alike, the source gives them in different places.
How the values were obtained:
[1] = tested on: human Liver-Chip (hepatocytes and non-parenchymal cells)
Summary of the method: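 Brightfield images over three fields of view on days 1, 3 and 7 of each cycle, scored 0–4 by two blinded scorers for cytotoxicity in the hepatocyte (top) and non-parenchymal cell (bottom) channels. Scores reflect monolayer integrity, junction loss, cytoplasmic granulation, debris agglomeration and percentage dead cells.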

[2] = cited from earlier work
[3] = tested on: human Liver-Chip (primary human hepatocytes); assay: Liver-Chip albumin production in top channel effluent (ELISA); type: cell-based; details: for Albumin change in words: Liver-Chip effluent
human Liver-Chip = assay: Liver-Chip DILI prediction: minimum toxic concentration and margin of safety (MOS)-like figure; details: for Chip MOS both donors / Chip MOS donor 1 / Chip MOS donor 2: free IC50 concentration in the assay divided by total concentration of drug in human plasma at Cmax; for Liver-Chip toxicity determination, MOS-like figure against threshold value of 50: not corrected for protein binding, donors one and two;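 for Chip MOS both donors: Toxic concentration is the lowest across albumin IC50 and ALT and morphology endpoints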;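 for Chip MOS donor 1: Toxic concentration is the lowest across albumin IC50 and ALT and morphology endpoints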;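 for Chip MOS donor 2: Toxic concentration is the lowest across albumin IC50 and ALT and morphology endpoints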
Description: Because the fundamental principles of drug action dictate that free (unbound) drug concentrations drive drug effects, we explored an alternative methodology for calculating the MOS-like values by accounting for protein binding using a previously reported approach. Accordingly, we reanalyzed the findings for the 27 drugs in our study by accounting for protein binding.

[4] = cited from earlier work; remark: listed apart in the source
[5] = tested on: clinical drug-induced liver injury; details: clinical DILI severity category 1 to 5; cited from earlier work
[6] = tested on: human Liver-Chip (primary human hepatocytes); assay: Liver-Chip alanine transaminase (ALT) release in top channel effluent (ELISA); type: cell-based; details: for ALT change in words: Liver-Chip effluent
[7] = human, total plasma Cmax, ref Xu, J. J. et al. (36)
[8] = concentration causing a 50% reduction in albumin production
[9] = lowest concentration causing an increase in ALT protein, donor 1
[10] = lowest concentration causing an increase in ALT protein, donor 2
[11] = expanded drug list, lowest concentration causing an increase in morphology score, donor 1
[12] = expanded drug list, lowest multiplier causing a 50% reduction in albumin production
[13] = expanded drug list, lowest concentration causing an increase in ALT release, donor 1
[14] = expanded drug list, lowest concentration causing an increase in ALT release, donor 2
[15] = lowest concentration causing an increase in cellular morphology score, donor 1
[16] = lowest concentration causing an increase in cellular morphology score, donor 2
[17] = human, total plasma Cmax, reference data from the literature, no reference
[18] = human, total plasma Cmax, ref Vorrink, S. U., Zhou, Y., Ingelman- Sundberg, M. & Lauschke, V.M. (30)

Compound | Morphology Donor 1 ([1]; human) | Morphology Donor 2 ([1]; human) | Human Cmax Total [2, 7] [nM] | Albumin IC50 Donor 1 [3, 8] | Albumin IC50 Donor 2 [3, 8] | Chip MOS both donors (human Liver-Chip) | Chip MOS donor 1 (human Liver-Chip) | Chip MOS donor 2 (human Liver-Chip) | Garside DILI rank [5] | Albumin IC50 Donor 1 [3, 12] | Expected Fraction Unbound in Plasma ([4]; plasma, ref Lau, S.W.J. (65)) | ALT Donor 1 [6, 13] | Albumin IC50 Donor 2 [3, 12] | ALT Donor 2 [6, 14] | Albumin change in words [3] | Liver-Chip toxicity determination, MOS-like figure against threshold value of 50 (human Liver-Chip) | ALT change in words [6] | other results
Cc1c(C)c2c(c(C)c1O)CCC(C)(COc1ccc(CC3SC(=O)NC3=O)cc1)O2 (centres unmarked) [Troglitazone] | 300 multiples of the unbound human Cmax | 300 multiples of the unbound human Cmax | 6080 | 24 multiples of the unbound human Cmax | 122 multiples of the unbound human Cmax | 0.03 | 0.03 | 0.1 | 1 |  |  |  |  |  |  |  |  | Expected Fraction Unbound in Plasma ([4]; plasma, reference data from the literature, no reference): 0.0011; ALT Donor 1 [6, 9]: 300 multiples of the unbound human Cmax; ALT Donor 2 [6, 10]: 300 multiples of the unbound human Cmax
O=C(NC1CCN(CCCCC2(C(=O)NCC(F)(F)F)c3ccccc3-c3ccccc32)CC1)c1ccccc1-c1ccc(C(F)(F)F)cc1 [Lomitapide] |  |  |  |  |  |  | 0 |  | 3 | 4 unbound human Cmax multiplier | 0.002 | > 1000 unbound human Cmax multiplier |  |  |  |  |  | Morphology Donor 1 [1, 11]: < 0.1 unbound human Cmax multiplier; Human Cmax Total ([2]; human, total plasma Cmax, ref Dawson, S., Stahl, Paul, N., Barber, J. & Kenna, J. G. (71)): 1.7 nM; Hepatotoxicity in the Liver-Chip, in words (human Liver-Chip; albumin, ALT and morphology endpoints together): highly toxic
CC(c1cc2ccccc2s1)N(O)C(N)=O (centres unmarked) [Zileuton] | > 100 unbound human Cmax multiplier | > 300 unbound human Cmax multiplier |  |  |  | 15 | >7 | 15 | 2 | > 100 unbound human Cmax multiplier |  | > 100 unbound human Cmax multiplier | 210 unbound human Cmax multiplier | > 300 unbound human Cmax multiplier |  |  |  | Human Cmax Total ([2]; human therapeutic total plasma Cmax from literature, ref Xu, J. J. et al. (36)): 13100 nM; plasma protein bound [4]: > 93%; Expected Fraction Unbound in Plasma ([4]; human plasma, ref Scott, L. J. (69)): 0.07
Cc1ccc(C(=O)c2cc(O)c(O)c([N+](=O)[O-])c2)cc1 [Tolcapone] |  |  |  | 3 multiples of the unbound human Cmax | 39 multiples of the unbound human Cmax | 0.004 | 0.004 | 0.05 | 1 |  | 0.0012 |  |  |  |  |  |  | Morphology Donor 1 [1, 15]: 10 multiples of the unbound human Cmax; Morphology Donor 2 [1, 16]: 100 multiples of the unbound human Cmax; Human Cmax Total [2, 17]: 47600 nM; ALT Donor 1 [6, 9]: 100 multiples of the unbound human Cmax; ALT Donor 2 [6, 10]: 30 multiples of the unbound human Cmax
Nc1c2c(nc3ccccc13)CCCC2 [Tacrine] |  |  | 100 |  |  | >12 | >12 | >12 | 2 |  | 0.25 | > 300 unbound human Cmax multiplier |  | > 1000 unbound human Cmax multiplier | not associated with any release of ALT or decline in albumin | not detected | not associated with any release of ALT | Morphology Donor 1 [1, 11]: > 300 unbound human Cmax multiplier; Morphology Donor 2 ([1]; expanded drug list, lowest concentration causing an increase in morphology score, donor 2): > 1000 unbound human Cmax multiplier
CC[C@H]1OC(=O)[C@H](C)C(=O)[C@H](C)[C@@H](O[C@@H]2O[C@H](C)C[C@H](N(C)C)[C@H]2O)[C@](C)(OC)C[C@@H](C)C(=O)[C@H](C)[C@H]2N(CCCCn3cnc(-c4cccnc4)c3)C(=O)O[C@]12C [Telithromycin] | 100 unbound human Cmax multiplier |  |  |  |  |  | 6 |  | 1 | 13 unbound human Cmax multiplier | 0.4 | 30 unbound human Cmax multiplier |  |  | decrease in albumin |  | concomitant increase | Morphological injury score change in words [1]: concomitant increase; Human Cmax Total [2, 17]: 2790 nM
CC(CCc1ccccc1)NCC(O)c1ccc(O)c(C(N)=O)c1 (centres unmarked) [Labetalol] | > 100 unbound human Cmax multiplier | 100 unbound human Cmax multiplier |  |  |  | 22 | 26 | 22 | 1 | 26 unbound human Cmax multiplier | 0.5 | > 100 unbound human Cmax multiplier | 40 unbound human Cmax multiplier | 100 unbound human Cmax multiplier |  | hepatotoxic |  | Human Cmax Total [2, 18]: 2680 nM
O=c1[nH]c(=O)n([C@@H]2O[C@H](CO)[C@@H](O)[C@@H]2F)cc1I [FIRU] |  |  |  | >300 multiples of the unbound human Cmax | >300 multiples of the unbound human Cmax | >108 | >108 | >108 | 5 |  |  |  |  |  |  |  |  | Morphology Donor 1 [1, 15]: >300 multiples of the unbound human Cmax; Morphology Donor 2 [1, 16]: >300 multiples of the unbound human Cmax; Human Cmax Total [2, 18]: *0.64µM; Expected Fraction Unbound in Plasma ([4]; plasma, ref Scott, L. J. (69)): *0.36; ALT Donor 1 [6]: >300 multiples of the unbound human Cmax; ALT Donor 2 [6]: >300 multiples of the unbound human Cmax
Cc1cn([C@H]2C=C[C@@H](CO)O2)c(=O)[nH]c1=O [Stavudine] | 300 unbound human Cmax multiplier | 300 unbound human Cmax multiplier | 3460 |  |  | 107 | 247 | 107 | 1 | > 60 unbound human Cmax multiplier | 1 | 300 unbound human Cmax multiplier | 132 unbound human Cmax multiplier | > 300 unbound human Cmax multiplier |  | not detected; also recorded: false negative |  | Liver-Chip toxicity determination, protein-binding-corrected MOS-like figure, threshold 375 (human Liver-Chip; 18 drugs tested in both donors): detection
C=C[C@@H]1C[C@]1(NC(=O)[C@@H]1C[C@@H](Oc2ncc(OC)c3ccc(Cl)cc23)CN1C(=O)[C@@H](NC(=O)OC(C)(C)C)C(C)(C)C)C(=O)NS(=O)(=O)C1CC1 [Asunaprevir] | 1000 unbound human Cmax multiplier |  |  |  |  |  | 4 |  | 2 |  | 0.012 | > 1000 unbound human Cmax multiplier |  |  | concentration and time-dependent changes |  | no elevation of ALT | Morphological injury score change in words [1]: concentration and time-dependent changes; Human Cmax Total ([2]; human, total plasma Cmax, ref Schulz, M. & Schmoldt, A. (64)): 764.4 nM

From PMC9727064, “Performance assessment and economic analysis of a human Liver-Chip for predictive toxicology” (Communications Medicine, 2022)
